PubChem BioAssay (NCI)
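1) Cells in 96-well plates. 2) Compound, 48 h, 5 concentrations. 3) Linear interpolation between surrounding doses. 4) Unreached endpoint = highest concentration. Here, GI50 denotes the concentration required for 50% inhibition of growth. Definition used: TGI = concentration required for complete inhibition of growth.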

Key:
Assay in all cases: NCI tumour cell line growth inhibition, 48 h
SNB-78 CNS = system: SNB-78 CNS
KM20L2 colon = system: KM20L2 colon
LXFL 529 NSCLC = system: LXFL 529 NSCLC
HOP-18 NSCLC = system: HOP-18 NSCLC
DMS 273 small cell lung = system: DMS 273 small cell lung
DLD-1 colon = system: DLD-1 colon
XF 498 CNS = system: XF 498 CNS
RXF-631 renal = system: RXF-631 renal
MDA-N = system: MDA-N
SN12K1 renal = system: SN12K1 renal
P388 leukemia = system: P388 leukemia

| Structure (SMILES) | TGI (SNB-78 CNS) [µM] | TGI (KM20L2 colon) [µM] | TGI (LXFL 529 NSCLC) [µM] | TGI (HOP-18 NSCLC) [µM] | TGI (DMS 273 small cell lung) [µM] | TGI (DLD-1 colon) [µM] | TGI (XF 498 CNS) [µM] | TGI (RXF-631 renal) [µM] | TGI (MDA-N) [µM] | other results |
| --- | --- | --- | --- | --- | --- | --- | --- | --- | --- | --- |
| NC(=S)N/N=C(/CC(=O)c1ccccc1)C(=O)Nc1ccc(Cl)c(Cl)c1 | > 100 | > 100 | > 100 | > 100 | > 100 | > 100 | – | – | – | – |
| COc1nc(NC2OCC(OC(C)=O)C(OC(C)=O)C2OC(C)=O)c(N=CC=Nc2c(NC3OCC(OC(C)=O)C(OC(C)=O)C3OC(C)=O)nc(OC)n(C)c2=O)c(=O)n1C (stereo not given) | > 100 | > 100 | > 100 | > 100 | > 100 | > 100 | 95.9 | – | – | – |
| CC1=NOC(=O)/C1=C/c1ccccc1O | > 100 | > 100 | > 100 | > 100 | > 100 | > 100 | > 100 | > 100 | – | – |
| COc1c2c(c3c(c1CCC(=O)O)OC(C)(C)C=C3)OC(C)(C)C=C2 | – | – | – | – | – | – | – | – | > 100 | – |
| CN(C)/C=C/c1nnc([N+](=O)[O-])s1 | – | – | – | – | – | – | – | – | 17.4 | – |
| O=C(c1ccccc1)C1N=NCC1c1ccc([N+](=O)[O-])cc1 (stereo not given) | – | – | – | – | – | – | – | – | > 100 | – |
| C=CCC1([C@H](C)[C@@H](OC(C)=O)c2cc(OC)c(OC)c(OC)c2)C[C@@H](OC)CCC1=O (stereo not given in full) | – | 24.6 | 31.2 | – | – | 37.5 | 32.9 | – | – | – |
| O=C(c1ccc(F)cc1)c1cccc(C(=O)c2ccc(F)cc2)n1 | > 58.1 | > 100 | > 100 | > 100 | > 100 | > 100 | > 59.7 | – | > 100 | – |
| CC1CCCCc2nc3c(c(=O)n21)CCCC3 (stereo not given) | > 100 | > 100 | > 100 | – | > 100 | > 100 | > 100 | > 100 | – | – |
| CC1=NCCc2c1[nH]c1cc(O)ccc21 | > 100 | > 100 | > 100 | > 100 | – | > 100 | > 100 | > 100 | – | – |
| Cc1ccc(-c2c(N)[n+]([O-])c3ccccc3[n+]2[O-])cc1 | 37.1 | 38.9 | 18.3 | 29.1 | 29.5 | 28.7 | 19.5 | 3.19 | – | – |
| COc1ccccc1NC(=O)CC(=O)N1N=C(C)C(N=Nc2ccc(S(N)(=O)=O)cc2)C1=O (stereo not given) | > 100 | > 100 | > 100 | > 100 | > 100 | > 100 | > 100 | – | – | – |
| N#C/C(=C1\OC(=O)C(c2ccc(Br)cc2)=C1O)c1ccc(Br)cc1 | 28.2 | 31.5 | 22.1 | 26.3 | 48.2 | 34.6 | 25.6 | 92.6 | – | – |
| COC(=O)CCC(NC(=S)N/N=C(\C)c1nccs1)C(=O)OC (stereo not given) | > 100 | > 100 | > 100 | > 100 | – | > 100 | > 100 | > 100 | – | – |
| COc1ccc2nc3cc([N+](=O)[O-])ccc3c(NCCCCCN(C)C)c2c1 | – | – | – | – | – | – | – | – | 1.57 | GI50 (MDA-N): 0.438 µM |
| Nc1cc2cccc[n+]2c2cc(Cl)ccc12 | – | – | – | – | – | – | – | – | 38.8 | GI50 (MDA-N): 12.6 µM |
| CC(=O)NC(CCCNCc1ccccc1)C(=O)NCc1ccccc1 (stereo not given) | > 100 | > 100 | > 100 | – | > 100 | > 100 | > 100 | > 100 | – | – |
| CNC(=O)OCc1nc(SC2CCCCO2)n(C)c1COC(=O)NC (stereo not given) | > 100 | > 100 | > 100 | > 100 | > 100 | > 100 | > 100 | > 100 | – | TGI (SN12K1 renal): > 100 µM; TGI (P388 leukemia): > 100 µM |
| COc1ccc2c(c1)C(O)(C(F)(F)F)c1cc(C(=O)C(F)(F)F)c3ccccc3c1N2 (stereo not given) | – | 13.7 | 22 | 33.3 | 23.1 | 22.4 | – | 34.6 | – | – |
| Cc1occc1C(=S)Nc1ccc(Cl)c(COC(C)(C)C)c1 | – | – | – | – | – | – | – | – | 34.4 | – |
| CCN(CC)CCn1ccc(=O)c2cc3c(=O)ccn(CCN(CC)CC)c3c(C)c21 | 26.9 | 15.4 | 16.5 | 30 | 15.1 | 7.83 | 21.4 | 21.5 | 18 | – |

| Structure (SMILES) | TGI (SNB-78 CNS) [µM] | TGI (KM20L2 colon) [µM] | TGI (LXFL 529 NSCLC) [µM] | TGI (HOP-18 NSCLC) [µM] | TGI (DMS 273 small cell lung) [µM] | TGI (DLD-1 colon) [µM] | TGI (XF 498 CNS) [µM] | TGI (RXF-631 renal) [µM] | TGI (MDA-N) [µM] | other results |
| --- | --- | --- | --- | --- | --- | --- | --- | --- | --- | --- |
| COC(=O)c1csnn1 | – | > 100 | > 100 | – | > 100 | – | > 100 | – | – | – |
| C[N+](C)(C)CC(=O)N/N=C(/Cc1nc2c3c(ccc2[nH]c1=O)C(=O)c1ccccc1C3=O)C(=O)Nc1ccc(Cl)c(Cl)c1 | – | > 100 | – | – | – | > 100 | – | > 100 | – | – |
| CCCCOc1ccc(NC(N)=Nc2ccc(Cl)cc2)cc1 | – | – | – | – | – | – | – | – | 19.5 | – |
| C1CCSCCCCSCCCCSCCCCSC1 | – | – | – | – | – | – | – | – | > 100 | – |
| CCOC(=O)C1=C(C)N(Cc2ccccc2)C(C)=C(C(=O)OCC)C1c1ccccc1O | – | > 100 | 71 | > 100 | > 100 | > 100 | 51.3 | > 100 | – | – |
| CC(C)(C)OC(=O)C#CC[C@H]1CCCC1/C=C/C(O)=C1/C(=O)NC(CCCNC(=O)OC(C)(C)C)C1=O (stereo not given in full) | – | 53.2 | 53.8 | > 100 | 65.9 | > 100 | – | 44.9 | – | – |
| COc1cc(/C=C2\C(=O)N(C(=O)Cc3ccccc3)N=C2C)ccc1O | > 100 | – | – | > 100 | > 100 | > 100 | > 100 | – | – | – |
| CC(C)C(=O)Nc1nc2nc[nH]c2c(=O)[nH]1 | > 100 | > 100 | > 100 | > 100 | > 100 | > 100 | > 100 | > 100 | – | – |
| O=C(Cn1ccc(=O)[nH]c1=O)Nc1ccc(C(=O)O)c(O)c1 | – | – | – | – | – | – | – | – | > 100 | – |
| COC(=O)CCC1CCc2c(OC)ccc(O)c2C1=O (stereo not given) | > 100 | – | > 100 | – | > 100 | > 100 | – | > 100 | – | – |
| CCCN=Cc1cc(Cc2ccc(O)c(C=NCCC)c2)ccc1O | – | – | – | – | – | – | – | – | 10.1 | – |
| Cc1ccc(S(=O)(=O)N2CCSCCSCCSCCSCC2)cc1 | – | – | – | – | – | – | – | – | > 100 | – |
| Cc1ccc(C(=O)O/N=C2/CCC/C2=C\c2ccccc2)cc1 | > 100 | > 100 | > 100 | > 100 | > 100 | > 100 | – | – | – | – |
| N#CC(C(=O)/C(=N/NC(=O)c1ccccc1O)C(C#N)c1ccc(Cl)cc1)c1ccc(Cl)cc1 (stereo not given) | > 100 | 27.2 | 25.1 | 23.6 | – | 33 | 26.3 | – | – | – |
| Cc1ccncc1.[O]=[Ge].[O]=[Ge].[O]=[Ge].[O]=[Ge].[O]=[Ge].[O]=[Ge][OH].[O]=[Ge][OH] | > 100 | > 100 | > 100 | > 100 | > 100 | > 100 | > 100 | > 100 | – | GI50 (SNB-78 CNS): > 100 µM; GI50 (KM20L2 colon): > 100 µM; GI50 (LXFL 529 NSCLC): > 100 µM; GI50 (HOP-18 NSCLC): > 100 µM; GI50 (XF 498 CNS): > 100 µM; GI50 (DMS 273 small cell lung): > 100 µM; GI50 (RXF-631 renal): > 100 µM; GI50 (DLD-1 colon): > 100 µM |
| CCCCCCCCCCCCOC(=S)NCCCC | 88.4 | 39.5 | > 100 | 89.1 | 41 | > 100 | 31.9 | 55.6 | – | – |
| O=C([O-])c1ccccc1Nc1ccccn1.O=C([O-])c1ccccc1Nc1ccccn1.[Ni+2] | > 100 | – | > 100 | – | – | > 100 | – | – | – | GI50 (SNB-78 CNS): 91.8 µM; GI50 (LXFL 529 NSCLC): 55.2 µM; GI50 (DLD-1 colon): > 100 µM |
| O=C(CC(=O)CC(O)(C(F)(F)F)C(F)(F)F)CC(O)(C(F)(F)F)C(F)(F)F | – | – | – | – | – | – | – | – | > 10 | – |
| COc1ccccc1NC(=O)C1=C(C)NC(C)=C(C(=O)Nc2ccccc2OC)C1c1ccccc1F | > 100 | > 100 | > 100 | > 100 | > 100 | > 100 | – | > 100 | – | – |
| CN(C(=O)C12C3C4C5C3C1(C(=O)O)C5C42)C(C)(C)C (stereo not given) | > 100 | > 100 | > 100 | > 100 | 33.5 | 55.2 | > 100 | > 100 | – | – |
| CCCc1[nH]nc(CCC(=O)N(Cc2ccccc2)Cc2ccccc2)c1CC | – | > 100 | > 100 | > 100 | > 100 | > 100 | > 100 | > 100 | – | – |
